Laboratory results published in patent publication US11358953B2, “Functionalized peptides as antiviral agents” (ENANTA PHARMACEUTICALS, INC., priority 2020, dated 2022).

Target: SARS-CoV-2 3CL-protease (Severe acute respiratory syndrome coronavirus 2 (2019-nCoV) (SARS-CoV-2), UniProt P0DTD1)
Test: SARS-CoV-2 3C-like (3CL) protease fluorescence assay (FRET)
Type: biochemical
Details: recombinant SARS-CoV-2 3CL-protease 10 nM, 30 min preincubation at RT, substrate 40 μM, duplicate

**Q.** CC1(C)[C@@H]2[C@@H](C(=O)N[C@H](C#N)C[C@@H]3CCNC3=O)N(C(=O)c3cc4c(F)ccc(F)c4[nH]3)C[C@@H]21 [Ex20, (1R,2S,5S)—N—((S)-1-cyano-2-((S)-2-oxopyrrolidin-3-yl)ethyl)-3-(4,7-difluoro-1H-indole-2-carbonyl)-6,6-dimethyl-3-azabicyclo[3.1.0]hexane-2-carboxamide] was tested. Which IC50 did it give?
**A.** 100 to 1000 nM

**Q.** For CC1(C)[C@@H]2[C@@H](C(=O)N[C@H](C#N)C[C@@H]3CCNC3=O)N(C(=O)c3cc4c(Cl)cccc4[nH]3)C[C@@H]21 [Ex21, (1R,2S,5S)-3-(4-chloro-1H-indole-2-carbonyl)-N—((S)-1-cyano-2-((S)-2-oxopyrrolidin-3-yl)ethyl)-6,6-dimethyl-3-azabicyclo[3.1.0]hexane-2-carboxamide], which IC50 is on record?
**A.** 100 to 1000 nM

**Q.** CC1(C)[C@@H]2[C@@H](C(=O)N[C@H](C#N)C[C@@H]3CCNC3=O)N(C(=O)c3cc4c(Cl)cccc4o3)C[C@@H]21 [Ex22, (1R,2S,5S)-3-(4-chlorobenzofuran-2-carbonyl)-N—((S)-1-cyano-2-((S)-2-oxopyrrolidin-3-yl)ethyl)-6,6-dimethyl-3-azabicyclo[3.1.0]hexane-2-carboxamide] was tested. Which IC50 did it give?
**A.** > 1000 nM

**Q.** With CC(C)(C)[C@H](NC(=O)C1CCCC1)C(=O)N1C[C@H]2[C@@H]([C@H]1C(=O)N[C@H](C#N)C[C@@H]1CCNC1=O)C2(C)C [Ex23, (1R,2S,5S)—N—((S)-1-cyano-2-((S)-2-oxopyrrolidin-3-yl)ethyl)-3-((S)-2-(cyclopentanecarboxamido)-3,3-dimethylbutanoyl)-6,6-dimethyl-3-azabicyclo[3.1.0]hexane-2-carboxamide] as the molecule, how does the IC50 read?
**A.** < 100 nM

**Q.** CC(C)(C)[C@H](NC(=O)Cc1ccccc1)C(=O)N1C[C@H]2[C@@H]([C@H]1C(=O)N[C@H](C#N)C[C@@H]1CCNC1=O)C2(C)C [Ex24, (1R,2S,5S)—N—((S)-1-cyano-2-((S)-2-oxopyrrolidin-3-yl)ethyl)-3-((S)-3,3-dimethyl-2-(2-phenylacetamido)butanoyl)-6,6-dimethyl-3-azabicyclo[3.1.0]hexane-2-carboxamide] was tested. Which IC50 did it give?
**A.** < 100 nM

**Q.** Which IC50 does the source give for CC(C)(C)[C@H](NC(=O)C1CCCCC1)C(=O)N1C[C@H]2[C@@H]([C@H]1C(=O)N[C@H](C#N)C[C@@H]1CCNC1=O)C2(C)C [Ex25, (1R,2S,5S)—N—((S)-1-cyano-2-((S)-2-oxopyrrolidin-3-yl)ethyl)-3-((S)-2-(cyclohexanecarboxamido)-3,3-dimethylbutanoyl)-6,6-dimethyl-3-azabicyclo[3.1.0]hexane-2-carboxamide] here?
**A.** < 100 nM

**Q.** CCC(=O)N[C@H](C(=O)N1C[C@H]2[C@@H]([C@H]1C(=O)N[C@H](C#N)C[C@@H]1CCNC1=O)C2(C)C)C(C)(C)C [Ex26, (1R,2S,5S)—N—((S)-1-cyano-2-((S)-2-oxopyrrolidin-3-yl)ethyl)-3-((S)-3,3-dimethyl-2-propionamidobutanoyl)-6,6-dimethyl-3-azabicyclo[3.1.0]hexane-2-carboxamide] was tested. Which IC50 did it give?
**A.** < 100 nM

**Q.** For CC(C)C(=O)N[C@H](C(=O)N1C[C@H]2[C@@H]([C@H]1C(=O)N[C@H](C#N)C[C@@H]1CCNC1=O)C2(C)C)C(C)(C)C [Ex27, (1R,2S,5S)—N—((S)-1-cyano-2-((S)-2-oxopyrrolidin-3-yl)ethyl)-3-((S)-2-isobutyramido-3,3-dimethylbutanoyl)-6,6-dimethyl-3-azabicyclo[3.1.0]hexane-2-carboxamide], which IC50 is on record?
**A.** < 100 nM

**Q.** CC(C)(C)C(=O)N[C@H](C(=O)N1C[C@H]2[C@@H]([C@H]1C(=O)N[C@H](C#N)C[C@@H]1CCNC1=O)C2(C)C)C(C)(C)C [Ex28, (1R,2S,5S)—N—((S)-1-cyano-2-((S)-2-oxopyrrolidin-3-yl)ethyl)-3-((S)-3,3-dimethyl-2-pivalamidobutanoyl)-6,6-dimethyl-3-azabicyclo[3.1.0]hexane-2-carboxamide] was tested. Which IC50 did it give?
**A.** < 100 nM

**Q.** With CC(=O)N[C@H](C(=O)N1C[C@H]2[C@@H]([C@H]1C(=O)N[C@H](C#N)C[C@@H]1CCNC1=O)C2(C)C)C(C)(C)C [Ex29, (1R,2S,5S)-3-((S)-2-acetamido-3,3-dimethylbutanoyl)-N—((S)-1-cyano-2-((S)-2-oxopyrrolidin-3-yl)ethyl)-6,6-dimethyl-3-azabicyclo[3.1.0]hexane-2-carboxamide] as the molecule, how does the IC50 read?
**A.** < 100 nM
